In patent US10696651B2, “Heterocyclic compound” (Takeda Pharmaceutical Company Limited, priority 2016, dated 2020):

Tests used:
[1] = biological target: T1, human GCN2 full-length protein (Homo sapiens, UniProt Q9P2K8); test: GCN2 enzyme inhibition assay (LanthaScreen TR-FRET); format: biochemical; details: GCN2 enzyme inhibitory activity at compound concentration of 3 μM, Table 3-2; for inhibition at 3 µM: read-out: inhibitory rate; for inhibitory rate: 3 µM
T1 construct: purchased Carna Biosciences, Inc
T1 sequence (Q9P2K8 whole entry): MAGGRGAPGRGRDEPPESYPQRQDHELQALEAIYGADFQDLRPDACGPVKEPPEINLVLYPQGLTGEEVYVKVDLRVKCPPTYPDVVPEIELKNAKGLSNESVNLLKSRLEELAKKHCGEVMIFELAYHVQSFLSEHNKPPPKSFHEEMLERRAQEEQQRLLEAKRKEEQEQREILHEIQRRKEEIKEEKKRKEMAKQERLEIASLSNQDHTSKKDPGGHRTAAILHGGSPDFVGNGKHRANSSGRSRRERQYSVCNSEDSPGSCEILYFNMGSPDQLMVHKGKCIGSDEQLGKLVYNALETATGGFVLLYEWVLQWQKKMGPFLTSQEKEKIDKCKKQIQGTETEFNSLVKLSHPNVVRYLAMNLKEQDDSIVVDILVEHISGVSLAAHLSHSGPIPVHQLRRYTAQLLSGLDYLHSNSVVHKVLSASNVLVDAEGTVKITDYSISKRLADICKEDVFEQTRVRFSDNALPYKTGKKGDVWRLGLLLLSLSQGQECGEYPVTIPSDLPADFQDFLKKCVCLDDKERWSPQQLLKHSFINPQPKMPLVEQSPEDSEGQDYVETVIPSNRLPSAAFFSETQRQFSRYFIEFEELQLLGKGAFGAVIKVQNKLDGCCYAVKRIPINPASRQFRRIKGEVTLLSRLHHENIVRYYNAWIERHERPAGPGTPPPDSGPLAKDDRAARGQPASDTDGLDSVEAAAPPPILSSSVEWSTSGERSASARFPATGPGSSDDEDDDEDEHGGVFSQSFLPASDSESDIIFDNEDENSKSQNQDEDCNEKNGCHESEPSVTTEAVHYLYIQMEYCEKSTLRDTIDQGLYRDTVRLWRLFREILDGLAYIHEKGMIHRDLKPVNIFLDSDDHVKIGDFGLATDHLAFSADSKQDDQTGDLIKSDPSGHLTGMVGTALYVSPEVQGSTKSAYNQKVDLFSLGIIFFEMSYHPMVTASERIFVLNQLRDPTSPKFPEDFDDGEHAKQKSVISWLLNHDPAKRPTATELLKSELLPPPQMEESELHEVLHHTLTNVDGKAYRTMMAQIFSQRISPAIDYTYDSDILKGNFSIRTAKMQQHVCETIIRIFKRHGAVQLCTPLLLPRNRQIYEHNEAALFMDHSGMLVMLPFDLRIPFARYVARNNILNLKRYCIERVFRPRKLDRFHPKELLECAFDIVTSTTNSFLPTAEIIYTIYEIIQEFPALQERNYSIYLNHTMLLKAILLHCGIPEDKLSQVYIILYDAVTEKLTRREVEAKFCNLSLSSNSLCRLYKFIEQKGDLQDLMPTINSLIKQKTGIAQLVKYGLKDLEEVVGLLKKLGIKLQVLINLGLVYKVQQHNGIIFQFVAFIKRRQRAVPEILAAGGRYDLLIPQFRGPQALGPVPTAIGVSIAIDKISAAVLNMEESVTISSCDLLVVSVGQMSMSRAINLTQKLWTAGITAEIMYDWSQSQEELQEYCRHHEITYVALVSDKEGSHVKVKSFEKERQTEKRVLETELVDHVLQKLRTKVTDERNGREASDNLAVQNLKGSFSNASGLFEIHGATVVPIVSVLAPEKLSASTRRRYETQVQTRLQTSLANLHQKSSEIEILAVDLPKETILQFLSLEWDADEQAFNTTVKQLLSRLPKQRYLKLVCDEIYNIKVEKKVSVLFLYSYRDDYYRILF
Outline: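 Full-length human GCN2 was preincubated with compound for 1 hr at room temperature, then reacted for 1 hr with substrate and ATP added from a 570 μM ATP / 390 nM substrate solution (stock concentrations). Phosphorylation was detected by TR-FRET with a terbium-labelled anti-eIF2alpha antibody after 1 hr, with enzyme-free wells as control.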

[2] = test system: osteosarcoma cell line U-2-OS; test: In vitro cell proliferation inhibition assay (CellTiter-Glo, low amino acid media); format: cell-based; details: McCoy's 5A low amino acid media, Table 4-2; for inhibition at 0.1 µM: Homo sapiens, U2OS, 72 h, cell proliferation inhibitory rate; for inhibitory rate: 72 hr
Experimental: A cell suspension (40 μL) (1000 cells/well) of osteosarcoma cell line U-2-OS obtained from ATCC (American Type Culture Collection) was seeded on a 384 plate using McCoy's 5A low amino acid media (amino acid content 25%). The seeded cells were incubated (37° C., 5% CO2) overnight to 24 hr at the longest. Each example compound was dissolved (10 mM) in DMSO, delivered to wells by using TECAN HP D300 (TECAN), and the plate was incubated for 72 hr (37° C., 5% CO2). A well without addition of compound was treated similarly as a control group. Celltiter-Glo (registered trade mark) Luminescent Cell Viability Assay reagent (Promega KK) equilibrated at room temperature was added (40 μL/well) to cells in each well before compound treatment (untreated group) and 72 hours after compound treatment. After incubation for 10 min, cell proliferation inhibitory rate was measured by the amount of ATP which is a cell viability marker. Luminescence of cells showing ATP amount was measured using ARVO MX (PerkinElmer). Based on the luminescence values of the untreatment group, the control group without addition of Example compound solution, and the treatment group with addition of Example compound, the cell proliferation inhibitory rate (%) of the test compound at a compound concentration of 100 nM was calculated by the following formula and the results thereof are shown in Tables 4-1, 4-2. Inhibitory rate (%)=(1−(luminescence value of treatment group−luminescence value of untreatment group)÷(luminescence value of control group−luminescence value of untreatment group))×100

| inhibition at 3 µM [1] [%] | inhibitory rate [1] [%] | SMILES | inhibition at 0.1 µM [2] [%] | inhibitory rate [2] [%] |
| --- | --- | --- | --- | --- |
| 99 |  | C[C@H](CO)Nc1ncc(C#Cc2c(F)ccc(NS(=O)(=O)c3cc(Cl)cc4c3OCC4O)c2F)cn1 (stereo partly drawn) [Example 184, 5-chloro-N-(2,4-difluoro-3-((2-(((2R)-1-hydroxypropan-2-yl)amino)pyrimidin-5-yl)ethynyl)phenyl)-3-hydroxy-2,3-dihydro-1-benzofuran-7-sulfonamide] |  | 59 |
| 100 |  | O=S(=O)(Nc1ccc(F)c(C#Cc2cnc(N[C@H]3CC[C@H](O)CC3)nc2)c1F)c1cc(Cl)cc2c1OCC2O (stereo partly drawn) [Example 185, 5-chloro-N-(2,4-difluoro-3-((2-((trans-4-hydroxycyclohexyl)amino)pyrimidin-5-yl)ethynyl)phenyl)-3-hydroxy-2,3-dihydro-1-benzofuran-7-sulfonamide] | 56 |  |
|  | 100 | C[C@H](CO)Nc1ncc(C#Cc2c(F)ccc(NS(=O)(=O)c3cc(Cl)cc4c3OCC4O)c2F)cn1 (stereo partly drawn) [Example 186, 5-chloro-N-(2,4-difluoro-3-((2-(((2R)-1-hydroxypropan-2-yl)amino)pyrimidin-5-yl)ethynyl)phenyl)-3-hydroxy-2,3-dihydro-1-benzofuran-7-sulfonamide] |  | 43 |
| 100 |  | Cc1ncc(Cl)cc1S(=O)(=O)Nc1ccc(F)c(C#Cc2cnc(N[C@H]3CC[C@H](O)CC3)nc2)c1F [Example 188, 5-chloro-N-(2,4-difluoro-3-((2-((trans-4-hydroxycyclohexyl)amino)pyrimidin-5-yl)ethynyl)phenyl)-2-methylpyridine-3-sulfonamide] | 77 |  |
| 99 |  | Cc1ncc(Cl)cc1S(=O)(=O)Nc1ccc(F)c(C#Cc2cnc(N[C@H](C)CO)nc2)c1F [Example 189, 5-chloro-N-(2,4-difluoro-3-((2-(((2R)-1-hydroxypropan-2-yl)amino)pyrimidin-5-yl)ethynyl)phenyl)-2-methylpyridine-3-sulfonamide] | 79 |  |
|  | 99 | O=S(=O)(Nc1ccc(F)c(C#Cc2cnc(N[C@H]3CC[C@H](O)CC3)nc2)c1F)c1cc(Cl)cc2c1OCC2O (stereo partly drawn) [Example 190, 5-chloro-N-(2,4-difluoro-3-((2-((trans-4-hydroxycyclohexyl)amino)pyrimidin-5-yl)ethynyl)phenyl)-3-hydroxy-2,3-dihydro-1-benzofuran-7-sulfonamide] |  | 65 |
|  | 99 | O=S(=O)(Nc1ccc(F)c(C#Cc2cnc(N[C@H]3CC[C@H](O)CC3)nc2)c1F)c1cc(Cl)cc2c1OCC2O (stereo partly drawn) [Example 191, 5-chloro-N-(2,4-difluoro-3-((2-((trans-4-hydroxycyclohexyl)amino)pyrimidin-5-yl)ethynyl)phenyl)-3-hydroxy-2,3-dihydro-1-benzofuran-7-sulfonamide] |  | 74 |
| 98 |  | Cc1ncc(Cl)cc1S(=O)(=O)Nc1ccc(F)c(C#Cc2cnc(N[C@@H](C)CO)nc2)c1F [Example 193, 5-chloro-N-(2,4-difluoro-3-((2-(((2S)-1-hydroxypropan-2-yl)amino)pyrimidin-5-yl)ethynyl)phenyl)-2-methylpyridine-3-sulfonamide] | 64 |  |

The remaining lines, values behind:

| SMILES | inhibition at 3 µM [1] [%] | inhibitory rate [1] [%] | inhibition at 0.1 µM [2] [%] | inhibitory rate [2] [%] |
| --- | --- | --- | --- | --- |
| COc1ncc(Cl)cc1S(=O)(=O)Nc1ccc(F)c(C#Cc2cnc(N[C@H]3CC[C@H](O)CC3)nc2)c1F [Example 174, 5-chloro-N-(2,4-difluoro-3-((2-((trans-4-hydroxycyclohexyl)amino)pyrimidin-5-yl)ethynyl)phenyl)-2-methoxypyridine-3-sulfonamide] | 99 |  | 83 |  |
| COc1ncc(Cl)cc1S(=O)(=O)Nc1ccc(F)c(C#Cc2cnc(N[C@H](C)CO)nc2)c1F [Example 175, 5-chloro-N-(2,4-difluoro-3-((2-(((2R)-1-hydroxypropan-2-yl)amino)pyrimidin-5-yl)ethynyl)phenyl)-2-methoxypyridine-3-sulfonamide] | 99 |  | 75 |  |
| O=S(=O)(Nc1ccc(F)c(C#Cc2cnc(N[C@H]3CC[C@H](O)CC3)nc2)c1F)c1cc(Cl)cc(CO)c1Cl [Example 176, 2,5-dichloro-N-(2,4-difluoro-3-((2-((trans-4-hydroxycyclohexyl)amino)pyrimidin-5-yl)ethynyl)phenyl)-3-(hydroxymethyl)benzenesulfonamide] | 100 |  | 77 |  |
| O=S(=O)(Nc1ccc(F)c(C#Cc2cnc(N[C@H]3CC[C@H](O)CC3)nn2)c1F)c1cc(Cl)cc(CO)c1Cl [Example 177, 2,5-dichloro-N-(2,4-difluoro-3-((3-((trans-4-hydroxycyclohexyl)amino)-1,2,4-triazin-6-yl)ethynyl)phenyl)-3-(hydroxymethyl)benzenesulfonamide] | 100 |  | 72 |  |
| C[C@H](CO)Nc1ncc(C#Cc2c(F)ccc(NS(=O)(=O)c3cc(Cl)cc(CO)c3Cl)c2F)nn1 [Example 178, 2,5-dichloro-N-(2,4-difluoro-3-((3-(((2R)-1-hydroxypropan-2-yl)amino)-1,2,4-triazin-6-yl)ethynyl)phenyl)-3-(hydroxymethyl)benzenesulfonamide] | 100 |  | 74 |  |
| O=S(=O)(Nc1ccc(F)c(C#Cc2cnc(NC3COC3)nn2)c1F)c1cc(Cl)cc(CO)c1Cl [Example 179, 2,5-dichloro-N-(2,4-difluoro-3-((3-(oxetan-3-ylamino)-1,2,4-triazin-6-yl)ethynyl)phenyl)-3-(hydroxymethyl)benzenesulfonamide] | 102 |  | 75 |  |
| C[C@H](CO)Nc1ncc(C#Cc2c(F)ccc(NS(=O)(=O)c3cc(Cl)cc(CO)c3Cl)c2F)cn1 [Example 180, 2,5-dichloro-N-(2,4-difluoro-3-((2-(((2R)-1-hydroxypropan-2-yl)amino)pyrimidin-5-yl)ethynyl)phenyl)-3-(hydroxymethyl)benzenesulfonamide] | 103 |  | 76 |  |
| O=S(=O)(Nc1ccc(F)c(C#Cc2cnc(NC3COC3)nc2)c1F)c1cc(Cl)cc(CO)c1Cl [Example 181, 2,5-dichloro-N-(2,4-difluoro-3-((2-(oxetan-3-ylamino)pyrimidin-5-yl)ethynyl)phenyl)-3-(hydroxymethyl)benzenesulfonamide] | 102 |  | 80 |  |
| CNc1ncc(Cl)cc1S(=O)(=O)Nc1ccc(F)c(C#Cc2cnc(N[C@H]3CC[C@H](O)CC3)nc2)c1F [Example 182, 5-chloro-N-(2,4-difluoro-3-((2-((trans-4-hydroxycyclohexyl)amino)pyrimidin-5-yl)ethynyl)phenyl)-2-(methylamino)pyridine-3-sulfonamide] | 102 |  | 71 |  |
| CNc1ncc(Cl)cc1S(=O)(=O)Nc1ccc(F)c(C#Cc2cnc(N[C@H](C)CO)nc2)c1F [Example 183, 5-chloro-N-(2,4-difluoro-3-((2-(((2R)-1-hydroxypropan-2-yl)amino)pyrimidin-5-yl)ethynyl)phenyl)-2-(methylamino)pyridine-3-sulfonamide] | 103 |  | 77 |  |
